Test results reported in US20260201336A1, “REPROGRAMMED SMOOTH MUSCLE CELLS AND METHODS RELATED THERETO” (EMORY UNIVERSITY, priority 2022, published 2026).

Test system: human dermal fibroblasts (HDFs)
Assay: qRT-PCR of HDFs treated with ATRA for four days
Format: cell-based
Experimental: Cell culture and maintenance. Human dermal fibroblasts (HDFs) were isolated from the dermis of human juvenile foreskin and expanded in Dulbecco's Modified Eagle's medium (DMEM) (Lonza, Basel, SWI) supplemented with 10% fetal bovine serum (FBS) (Sigma-Aldrich, St. Louis, MO), 1× Antibiotic-Antimycotic (Anti-Anti) (Gibco, Waltham, MA), 1× MEM Non-Essential Amino Acids (MEM NEAA) (Gibco, Waltham, MA), and 1× GlutaMAX Supplement (GlutaMAX) (Gibco, Waltham, MA) at 37° C. with 5% CO2. The Platinum-A (Plat-A) retroviral packaging cell line (Cell Biolabs, San Diego, CA) was maintained in the same medium without Anti-Anti and used for transfection at passages four to seven. HDFs and directly reprogrammed smooth muscle cells (rSMCs) were maintained in DMEM with low glucose (HyClone, Logan, UT) supplemented with 5% FBS, Anti-Anti, MEM NEAA, and GlutaMAX.
Generation of directly reprogrammed SMCs. For direct reprogramming of HDFs into contractile SMCs, HDFs were seeded at a density of 1.5×10^5 cells per ml in DMEM (Lonza) supplemented with 10% FBS (Sigma-Aldrich), Anti-Anti (Gibco), MEM NEAA (Gibco), and GlutaMAX (Gibco) at 37° C. with 5% CO2. The cells were infected overnight with filtered retroviral medium containing four μg per ml of polybrene (Sigma-Aldrich) with or without 0.4, 2, or 10 μM per liter of all-trans retinoic acid (ATRA) (Sigma-Aldrich), and the viral medium was replaced with DMEM/low glucose (HyClone) supplemented with 5% FBS, Anti-Anti, MEM NEAA, and GlutaMAX with or without ATRA for 24 hrs. The viral infection was repeated twice, and the cells were maintained in DMEM/low glucose containing 5% FBS with or without ATRA for the duration of culture.
[…] reverse transcriptase polymerase chain reaction (qRT-PCR). Total ribonucleic acid (RNA) was isolated from cells using the RNeasy Mini Kit (QIAGEN, Hilden, GE) or TRIsure (Bioline, Memphis, TN), according to the manufacturer's instructions. The extracted RNA was reverse transcribed with TaqMan Reverse Transcription Reagents (Applied Biosystems, Foster City, CA), according to the manufacturer's instructions. The synthesized cDNA was amplified with PowerUP SYBR Green Master Mix (Thermo Fisher Scientific, Waltham, MA), according to the manufacturer's instructions, and was subject to qRT-PCR with human or mouse specific primers, as shown in Table 1. Quantitative assessment of RNA levels was performed using a QuantStudio 3 96-well 0.2-ml real-time PCR system (Applied Biosystems). The relative messenger RNA (mRNA) expression was normalized to GAPDH.

[1] = ATRA-treated vs untreated HDFs, four days

In the case of `CC1=C(/C=C/C(C)=C/C=C/C(C)=C/C(=O)O)C(C)(C)CCC1` [ATRA, (2E,4E,6E,8E)-3,7-dimethyl-9-(2,6,6-trimethylcyclohexen-1-yl) nona-2,4,6,8-tetraenoic acid], the “expression of S100A4” value [1] is reported as “substantially reduced”, the “fold increase of SMC gene expression, CALD1” value [1] is reported as 1.1 fold and the “fold increase of SMC gene expression, MYH11” value [1] is reported as 6.1 fold. The “mRNA expression of STRA6 and the SMC genes” value [1] was “increased” and the “most effective concentration for induction of SMC gene expression” value (among the tested ATRA concentrations, HDFs) was 2 µM.
